Experimental data as given in ChEMBL document CHEMBL1148751, “Optimization of the indenone ring of indenoisoquinoline topoisomerase I inhibitors” (2007).

Assays:
Format in all cases: functional
SF-539 = test: Cytotoxicity against human SF539 cells
HOP-62 = test: Cytotoxicity against human HOP62 cells
DU-145 = test: Cytotoxicity against human DU145 cells
OVCAR-3 = test: Cytotoxicity against human OVCAR-3 cells
UACC-62 = test: Cytotoxicity against human UACC62 cells
SN12C = test: Cytotoxicity against human SN12C cells
MDA-MB-435 = test: Cytotoxicity against human MDA-MB-435 cells
HCT-116 = test: Cytotoxicity against human HCT116 cells

Structure (SMILES): O=C1c2cc(-c3ccccc3)ccc2-c2c1c1ccc([N+](=O)[O-])cc1c(=O)n2CCCBr
- GI50 (SF-539): 16.6 µM
- GI50 (HOP-62): 18.2 µM
- GI50 (DU-145): > 50.1 µM
- GI50 (OVCAR-3): > 50.1 µM
- GI50 (UACC-62): 49 µM
- GI50 (SN12C): > 50.1 µM
- GI50 (MDA-MB-435): > 50.1 µM
- GI50 (HCT-116): > 50.1 µM

Structure (SMILES): O=C1c2cc(Cl)ccc2-c2c1c1ccc([N+](=O)[O-])cc1c(=O)n2CCCBr
- GI50 (SF-539): 3.72 µM
- GI50 (HOP-62): 2.45 µM
- GI50 (DU-145): 3.98 µM
- GI50 (OVCAR-3): 36.3 µM
- GI50 (UACC-62): 3.47 µM
- GI50 (SN12C): 2.51 µM
- GI50 (MDA-MB-435): 14.8 µM
- GI50 (HCT-116): 3.47 µM

Structure (SMILES): COC(=O)c1ccc2c(c1)C(=O)c1c-2n(CCCCl)c(=O)c2cc([N+](=O)[O-])ccc12
- GI50 (SF-539): 83.2 µM
- GI50 (HOP-62): 43.7 µM
- GI50 (DU-145): 37.2 µM
- GI50 (OVCAR-3): 95.5 µM
- GI50 (UACC-62): 27.5 µM
- GI50 (SN12C): > 100 µM
- GI50 (MDA-MB-435): > 100 µM
- GI50 (HCT-116): 41.7 µM

Structure (SMILES): [N-]=[N+]=NCCCn1c2c(c3ccc([N+](=O)[O-])cc3c1=O)C(=O)c1cc(Br)ccc1-2
- GI50 (SF-539): > 100 µM
- GI50 (HOP-62): 56.2 µM
- GI50 (DU-145): 14.8 µM
- GI50 (OVCAR-3): > 100 µM
- GI50 (UACC-62): > 100 µM
- GI50 (SN12C): > 100 µM
- GI50 (MDA-MB-435): > 100 µM
- GI50 (HCT-116): 3.02 µM

Structure (SMILES): [N-]=[N+]=NCCCn1c2c(c3ccc([N+](=O)[O-])cc3c1=O)C(=O)c1ccccc1-2
- GI50 (UACC-62): 29.5 µM

Structure (SMILES): COC(=O)c1ccc2c(c1)C(=O)c1c-2n(CCCN)c(=O)c2cc(OC)c(OC)cc12
- GI50 (SF-539): 15.8 µM
- GI50 (HOP-62): 3.72 µM
- GI50 (DU-145): 17.8 µM
- GI50 (OVCAR-3): 16.6 µM
- GI50 (UACC-62): 17.4 µM
- GI50 (SN12C): 15.1 µM
- GI50 (MDA-MB-435): 18.2 µM
- GI50 (HCT-116): 16.6 µM

Structure (SMILES): COc1cc2c3c(n(CCCN)c(=O)c2cc1OC)-c1ccc(C#N)cc1C3=O
- GI50 (HOP-62): 3.98 µM
- GI50 (DU-145): 12.3 µM
- GI50 (OVCAR-3): 19.1 µM
- GI50 (UACC-62): 17 µM
- GI50 (SN12C): 16.6 µM
- GI50 (MDA-MB-435): 18.6 µM
- GI50 (HCT-116): 15.9 µM

Structure (SMILES): COc1cc2c3c(n(CCCCl)c(=O)c2cc1OC)-c1ccccc1C3=O
- GI50 (SF-539): 14.1 µM
- GI50 (HOP-62): 4.47 µM
- GI50 (DU-145): > 100 µM
- GI50 (OVCAR-3): 10.7 µM
- GI50 (UACC-62): 12.3 µM
- GI50 (SN12C): > 100 µM
- GI50 (MDA-MB-435): > 100 µM
- GI50 (HCT-116): 2.46 µM

Structure (SMILES): [N-]=[N+]=NCCCn1c2c(c3ccc([N+](=O)[O-])cc3c1=O)C(=O)c1cc(-c3ccccc3)ccc1-2
- GI50 (SF-539): > 100 µM
- GI50 (HOP-62): > 100 µM
- GI50 (DU-145): > 100 µM
- GI50 (OVCAR-3): > 100 µM
- GI50 (UACC-62): > 100 µM
- GI50 (SN12C): > 100 µM
- GI50 (MDA-MB-435): > 100 µM
- GI50 (HCT-116): > 100 µM

Structure (SMILES): COc1cc2c3c(n(CCCN=[N+]=[N-])c(=O)c2cc1OC)-c1ccc(F)cc1C3=O
- GI50 (SF-539): 3.24 µM
- GI50 (HOP-62): 4.17 µM
- GI50 (DU-145): 4.17 µM
- GI50 (OVCAR-3): 6.17 µM
- GI50 (UACC-62): 5.25 µM
- GI50 (SN12C): 8.32 µM
- GI50 (MDA-MB-435): 38 µM
- GI50 (HCT-116): 4.17 µM

Structure (SMILES): COc1cc2c3c(n(CCCBr)c(=O)c2cc1OC)-c1ccc(NC(C)=O)cc1C3=O
- GI50 (SF-539): 3.8 µM
- GI50 (HOP-62): 1.29 µM
- GI50 (DU-145): 4.68 µM
- GI50 (OVCAR-3): 4.36 µM
- GI50 (UACC-62): 2.09 µM
- GI50 (SN12C): 13.8 µM
- GI50 (MDA-MB-435): 13.8 µM
- GI50 (HCT-116): 2.57 µM

Structure (SMILES): CCOc1ccc2c(c1)C(=O)c1c-2n(CCCN)c(=O)c2cc([N+](=O)[O-])ccc12
- GI50 (SF-539): 0.035 µM
- GI50 (HOP-62): 0.012 µM
- GI50 (DU-145): 0.011 µM
- GI50 (OVCAR-3): 0.457 µM
- GI50 (UACC-62): 0.055 µM
- GI50 (SN12C): 0.055 µM
- GI50 (MDA-MB-435): 0.2 µM
- GI50 (HCT-116): 0.174 µM

Structure (SMILES): CCc1ccc2c(c1)C(=O)c1c-2n(CCCN)c(=O)c2cc([N+](=O)[O-])ccc12
- GI50 (SF-539): 1.58 µM
- GI50 (HOP-62): 1.38 µM
- GI50 (DU-145): 0.776 µM
- GI50 (OVCAR-3): 1.58 µM
- GI50 (UACC-62): 1.48 µM
- GI50 (SN12C): 1.48 µM
- GI50 (MDA-MB-435): 1.55 µM
- GI50 (HCT-116): 0.575 µM

Structure (SMILES): COc1cc2c3c(n(CCCN=[N+]=[N-])c(=O)c2cc1OC)-c1ccc(N(C)C)cc1C3=O
- GI50 (SF-539): > 100 µM
- GI50 (HOP-62): > 100 µM
- GI50 (DU-145): > 100 µM
- GI50 (OVCAR-3): > 100 µM
- GI50 (UACC-62): > 100 µM
- GI50 (SN12C): > 100 µM
- GI50 (MDA-MB-435): > 100 µM

Structure (SMILES): NCCCn1c2c(c3ccc([N+](=O)[O-])cc3c1=O)C(=O)c1cc(Br)ccc1-2
- GI50 (SF-539): 0.011 µM
- GI50 (HOP-62): 0.033 µM
- GI50 (DU-145): < 0.01 µM
- GI50 (OVCAR-3): 0.295 µM
- GI50 (UACC-62): < 0.01 µM
- GI50 (SN12C): < 0.01 µM
- GI50 (MDA-MB-435): 0.162 µM
- GI50 (HCT-116): 0.048 µM

Structure (SMILES): O=C1c2cc(Br)ccc2-c2c1c1ccc([N+](=O)[O-])cc1c(=O)n2CCCCl
- GI50 (SF-539): 0.661 µM
- GI50 (HOP-62): 3.63 µM
- GI50 (DU-145): 0.214 µM
- GI50 (OVCAR-3): 0.575 µM
- GI50 (SN12C): 0.019 µM
- GI50 (MDA-MB-435): 0.282 µM
- GI50 (HCT-116): 3.72 µM

Structure (SMILES): Cc1ccc2c(c1)C(=O)c1c-2n(CCCN=[N+]=[N-])c(=O)c2cc([N+](=O)[O-])ccc12
- GI50 (SF-539): > 100 µM
- GI50 (HOP-62): 72.4 µM
- GI50 (DU-145): > 100 µM
- GI50 (OVCAR-3): > 100 µM
- GI50 (UACC-62): 30.2 µM
- GI50 (SN12C): 58.9 µM
- GI50 (MDA-MB-435): > 100 µM
- GI50 (HCT-116): 20.4 µM

Structure (SMILES): COC(=O)c1ccc2c(c1)C(=O)c1c-2n(CCCN=[N+]=[N-])c(=O)c2cc([N+](=O)[O-])ccc12
- GI50 (SF-539): 53.7 µM
- GI50 (HOP-62): 25.7 µM
- GI50 (DU-145): 70.8 µM
- GI50 (OVCAR-3): > 100 µM
- GI50 (UACC-62): 37.1 µM
- GI50 (SN12C): > 100 µM
- GI50 (MDA-MB-435): > 100 µM
- GI50 (HCT-116): 47.9 µM

Structure (SMILES): Cc1ccc2c(c1)C(=O)c1c-2n(CCCN)c(=O)c2cc([N+](=O)[O-])ccc12
- GI50 (SF-539): 0.603 µM
- GI50 (HOP-62): 0.191 µM
- GI50 (DU-145): 0.115 µM
- GI50 (OVCAR-3): 0.324 µM
- GI50 (SN12C): 0.229 µM
- GI50 (MDA-MB-435): 0.316 µM
- GI50 (HCT-116): 0.229 µM
